± gives the expanded uncertainty stated by the source.

Consider five compounds from the NIST ThermoML archive (doi:10.1021/je1013476).

The conditions of the data set: 101.33 kPa, Liquid; for viscosity: Capillary tube (Ostwald / Ubbelohde) method; for mass density: Vibrating tube method.

For orientation: viscosity means the resistance of a fluid to flow. By mass density is commonly meant the mass of a sample divided by its volume. `CCO` [ethanol]: the viscosity reads like this: (288.15 K) 1.313 ± 0.013 mPa·s; (293.15 K) 1.216 ± 0.012 mPa·s; (298.15 K) 1.132 ± 0.011 mPa·s; (303.15 K) 1.01 ± 0.01 mPa·s; (313.15 K) 0.824 ± 0.008 mPa·s. Besides, the mass density came out at 793.65 ± 0.12 kg/m3 (288.15 K); 789.34 ± 0.12 kg/m3 (293.15 K); 785.07 ± 0.12 kg/m3 (298.15 K); 780.72 ± 0.12 kg/m3 (303.15 K); 771.97 ± 0.13 kg/m3 (313.15 K).
On to `CCCCCCCCO` [octan-1-ol], for which the viscosity runs as follows: (288.15 K) 11.07 ± 0.1 mPa·s; (293.15 K) 9.161 ± 0.085 mPa·s; (298.15 K) 7.688 ± 0.072 mPa·s; (303.15 K) 6.404 ± 0.06 mPa·s; (313.15 K) 4.62 ± 0.044 mPa·s. For the same compound, the mass density runs as follows: (288.15 K) 828.63 ± 0.12 kg/m3; (293.15 K) 825.2 ± 0.12 kg/m3; (298.15 K) 821.74 ± 0.12 kg/m3; (303.15 K) 818.23 ± 0.12 kg/m3; (313.15 K) 811.22 ± 0.12 kg/m3.
For `CCCCCO` [pentan-1-ol], the viscosity (288.15 K) is recorded as 4.682 ± 0.045 mPa·s; the viscosity (293.15 K) is listed as 4.025 ± 0.039 mPa·s; the viscosity (298.15 K) is on record as 3.497 ± 0.034 mPa·s; the viscosity (303.15 K) is reported as 3.022 ± 0.029 mPa·s; the viscosity (313.15 K) was found to be 2.312 ± 0.023 mPa·s. In addition, the mass density (288.15 K) is 818.32 ± 0.13 kg/m3; the mass density (293.15 K) was 814.63 ± 0.13 kg/m3; the mass density (298.15 K) was 810.96 ± 0.13 kg/m3; the mass density (303.15 K) is on record as 807.26 ± 0.13 kg/m3; the mass density (313.15 K) amounted to 799.78 ± 0.14 kg/m3.
`CCCO` [propan-1-ol]: the viscosity reads like this: (288.15 K) 2.507 ± 0.024 mPa·s; (293.15 K) 2.202 ± 0.021 mPa·s; (298.15 K) 1.973 ± 0.019 mPa·s; (303.15 K) 1.733 ± 0.017 mPa·s; (313.15 K) 1.381 ± 0.014 mPa·s. Besides, the mass density (288.15 K) is listed as 807.55 ± 0.12 kg/m3; the mass density (293.15 K) is 803.52 ± 0.13 kg/m3; the mass density (298.15 K) is given as 799.45 ± 0.13 kg/m3; the mass density (303.15 K) came out at 795.47 ± 0.13 kg/m3; the mass density (313.15 K) was found to be 787.28 ± 0.13 kg/m3.
As to `CCOC(=O)OCC` [diethyl carbonate], the viscosity turned out to be 0.864 ± 0.009 mPa·s (288.15 K); 0.803 ± 0.008 mPa·s (293.15 K); 0.757 ± 0.008 mPa·s (298.15 K); 0.7 ± 0.007 mPa·s (303.15 K); 0.616 ± 0.006 mPa·s (313.15 K). In addition, the mass density (288.15 K) is recorded as 980.39 ± 0.07 kg/m3; the mass density (293.15 K) is on record as 974.83 ± 0.07 kg/m3; the mass density (298.15 K) worked out at 969.15 ± 0.08 kg/m3; the mass density (303.15 K) turned out to be 963.39 ± 0.08 kg/m3; the mass density (313.15 K) was found to be 952.1 ± 0.08 kg/m3.
